From patent publication US20260347372A1, “SMALL MOLECULE INHIBITORS OF KRAS G12D MUTANT” (MERCK SHARP & DOHME LLC, priority 2023, published 2026) come the findings set out here.

Bounds are passed on as bounds.

Holding throughout (assay type): biochemical
In one assay the target is T1, KRAS G12C (Homo sapiens, UniProt P01116, G12C).
T1 construct: KRAS G12C (amino acids 1-169, N-terminal His-tag); made in house; host or cells: E. coli
The assay can be described thus: SOS-catalyzed nucleotide exchange assay, KRAS G12C (Procedure B; Example 14). Particulars: 1 hour compound incubation, SOS1 and GMPPNP 30 minutes, read-out: KRAS G12C GNE IC50. How it is done:
(§1) Procedure for SOS-Catalyzed Nucleotide Exchange Assay for KRAS-G12C/D/V/WT (Procedure B)
(§2) Recombinant KRAS G12C (amino acids 1-169, SEQ ID NO:9), KRAS G12D (amino acids 1-169, SEQ ID NO:10), KRAS G12V (amino acids 1-169, SEQ ID NO:11), KRAS WT (amino acids 1-169, SEQ ID NO:12) and SOS1 (amino acids 564-1049, SEQ ID NO:13) proteins were expressed in E. coli and purified by affinity chromatography. To prepare each BODIPY™ FL GDP-bound KRAS protein, 50 μM KRAS proteins were incubated with 0.5 mM BODIPY™ FL GDP (Invitrogen, G22360) in a loading buffer (20 mM Tris-HCl pH 7.5, 50 mM NaCl, 1 mM DTT and 2.5 mM EDTA) for 1 hour on ice. After the incubation, MgCl2 was added to a final concentration of 10 mM, followed by an incubation at room temperature for 30 minutes. The mixtures were allowed to pass through a NAP-5 column to remove free nucleotides and purified BODIPY™ FL GDP-bound KRAS G12C, G12D, G12V and WT proteins were used for compound evaluation.
(§3) The inhibitory activity of compounds on recombinant KRAS is measured by the displacement of the bound BODIPY™ GDP. […] Displacement of BODIPY™ FL GDP by Guanosine-5′-[(β,γ)-imido]triphosphate, Tetralithium salt (GMPPNP) was measured by calculating the ratio of fluorescence intensities of BODIPY™ FL before and after the exchange reaction. […] Dose response curves were analyzed using a 4-parameter logistic model to calculate IC50 values. […]

The target of the next assay is KRAS WT (Homo sapiens, UniProt P01116). Description: SOS-catalyzed nucleotide exchange assay, KRAS WT (Procedure B; Example 14). Also on record: KRAS WT (amino acids 1-169, N-terminal His-tag); made in house; host or cells: E. coli. Particulars: 1 hour compound incubation, SOS1 and GMPPNP 30 minutes, read-out: KRAS WT GNE IC50. How it is done:
as §1, §2, §3

For a further assay, the target named is KRAS G12D (Homo sapiens, UniProt P01116, G12D). The assay can be described thus: SOS-catalyzed nucleotide exchange assay, KRAS G12D (Procedure B; Example 14). Also noted: KRAS G12D (amino acids 1-169, N-terminal His-tag); made in house; host or cells: E. coli. Particulars: 1 hour compound incubation, SOS1 and GMPPNP 30 minutes, read-out: KRAS G12D GNE IC50. How it is done: as §1, §2, §3

For a further assay, the target named is KRAS G12V (Homo sapiens, UniProt P01116, G12V). Description: SOS-catalyzed nucleotide exchange assay, KRAS G12V (Procedure B; Example 14). Also on record: KRAS G12V (amino acids 1-169, N-terminal His-tag); made in house; host or cells: E. coli. Particulars: 1 hour compound incubation, SOS1 and GMPPNP 30 minutes, read-out: KRAS G12V GNE IC50. The procedure:
as §1, §2, §3

T1 sequence (P01116 with tags, fused parts or gaps isoform P01116-2 G12C): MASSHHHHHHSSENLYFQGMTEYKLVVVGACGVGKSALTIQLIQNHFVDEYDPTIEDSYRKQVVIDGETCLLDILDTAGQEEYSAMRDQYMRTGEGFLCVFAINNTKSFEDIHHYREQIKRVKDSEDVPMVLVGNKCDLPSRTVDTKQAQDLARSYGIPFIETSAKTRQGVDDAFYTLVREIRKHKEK
KRAS WT, sequence (P01116 with tags, fused parts or gaps isoform P01116-2): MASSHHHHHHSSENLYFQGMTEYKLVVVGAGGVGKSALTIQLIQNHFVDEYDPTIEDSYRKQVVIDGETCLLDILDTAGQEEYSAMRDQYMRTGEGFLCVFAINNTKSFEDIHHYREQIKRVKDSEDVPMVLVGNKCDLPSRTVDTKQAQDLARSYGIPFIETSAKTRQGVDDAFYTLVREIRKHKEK
KRAS G12D, sequence (P01116 with tags, fused parts or gaps isoform P01116-2 G12D): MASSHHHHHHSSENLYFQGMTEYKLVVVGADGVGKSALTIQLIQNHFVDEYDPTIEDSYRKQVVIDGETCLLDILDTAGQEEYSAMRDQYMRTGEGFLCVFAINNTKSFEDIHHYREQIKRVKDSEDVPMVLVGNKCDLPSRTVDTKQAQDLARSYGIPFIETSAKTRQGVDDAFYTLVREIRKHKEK
KRAS G12V, sequence (P01116 with tags, fused parts or gaps isoform P01116-2 G12V): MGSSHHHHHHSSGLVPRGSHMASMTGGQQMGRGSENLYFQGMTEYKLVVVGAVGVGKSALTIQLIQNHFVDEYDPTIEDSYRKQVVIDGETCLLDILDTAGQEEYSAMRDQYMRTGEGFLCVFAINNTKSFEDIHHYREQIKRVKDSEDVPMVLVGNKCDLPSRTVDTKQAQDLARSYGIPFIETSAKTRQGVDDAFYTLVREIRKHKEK

`FC(F)c1ccc2[nH]ncc2c1-c1nccc2c1sc1nc(OC[C@@]34CCCN3C[C@H](F)C4)nc(N3C[C@H]4CC[C@@H](C3)N4)c12` [Ex-14, 4-((1R,5S)-3,8-diazabicyclo[3.2.1]octan-3-yl)-8-(5-(difluoromethyl)-1H-indazol-4-yl)-2-(((2R,7aS)-2-fluorotetrahydro-1H-pyrrolizin-7a(5H)-yl)methoxy)pyrido[4′,3′:4,5]thieno [2,3-d]pyrimidine]: the IC50 (commonly the concentration at which inhibition is half-maximal) at KRAS G12C was over 5 µM; at KRAS WT, over 5 µM; at KRAS G12D, 0.11 µM; on KRAS G12V it was over 5 µM.
